Consider ten molecules from PMC9816206 (Archives of Toxicology, 2022).

For data set [1], the system named is cell cycle regulation and DNA damage repair. The following applies: transcriptomics approach; ref Abdelfatah et al. [2022]; cited from earlier work.
Data set [2] deals with HeLa H2B-GFP cells co-cultured with HepG2 cells. In words: Micronucleus assay in co-culture after pretreatment with inhibitors of metabolic enzymes and efflux transporters. The following applies: then Las 10 µM, Rid 100 µM, vs no pretreatment. On the procedure: Since the analysis was limited to HeLa H2B-GFP cells in these experiments, cytochalasin B (at final concentration 3 µg/ml) exposure was 20 h.
Transmembrane transporters may enhance or decrease PA-mediated effects. […] The idea was that metabolites formed in hepatocytes may not reach HeLa H2B-GFP cells to the same extent. […] Then, the co-culture was exposed to PAs for 28 h, followed by 3 µg/ml cytochalasin B for 20 h.

The next data set addresses T1, MRP2 efflux transporter (Homo sapiens, UniProt Q92887).
T1 construct: endogenous in cells; host or cells: HepG2
Description: MRP2 efflux transporter activity, intracellular calcein fluorescence retention. The class given is cell-based. The following applies: HepG2 cells; calcein substrate; benzbromarone 10 µM; data not shown.

The test system of another data set is HSEC. The following applies: PAs metabolized by HepaRG human hepatocyte cells in Transwell co-culture; ref Lu et al. [2019]; cited from earlier work.
Data set [3] deals with HeLa H2B-GFP cells co-cultured with HepG2 cells. Description: Cytokinesis-block micronucleus (CBMN) assay, HeLa H2B-GFP cells scored in co-culture with HepG2. The class given is cell-based, human. The following applies: lasiocarpine 10 µM, riddelliine 100 µM, europine 320 µM; 28 h; vs solvent control (DMSO); n = 3. On the procedure: (§1) The study of genomic damage was performed in a six-well plate in which one well consisted of only HepG2 cells, one well of only HeLa H2B-GFP cells and further wells containing both cell types in co-culture. To achieve this, 190, 000 of HeLa H2B-GFP cells per 3ml, 150,000 of HepG2 cells per 3ml and 40,000 HeLa H2B-GFP plus 150,000 HepG2 for the co-culture per 3ml were seeded and incubated overnight. As culture medium, the HepG2 cell medium was used for all cells. […] At this point, slides were coded and for each test sample micronuclei were scored in 1000 binucleated HeLa H2B-GFP cells in the co-culture and HeLa H2B-GFP cells, and in 1000 binucleated HepG2 cells in the HepG2 cell culture, at 400-fold magnification with an Eclipse 55i fluorescence microscope using a fluorescein isothiocyanate (FITC) filter (Nikon GmbH, Japan). The numbers of mononucleated cells (MN), binucleated cells (BN), trinucleated cells (TriN), and tetranucleated cells (TetraN) in 1000 cells were also scored. The cytokinesis-block proliferation index (CBPI) was calculated from that as a criterion for determining the cytotoxic effect using the following formula: CBPI=1×MN+2×BN+3×TriN+4×TetraN/MN+BN+TriN+TetraN.

Data set [4] relates to HeLa H2B-GFP cells. In words: Cytokinesis-block micronucleus (CBMN) assay, HeLa H2B-GFP cells cultured alone. The class given is cell-based, human. The following applies: lasiocarpine 10 µM, riddelliine 100 µM, europine 320 µM; 28 h; vs solvent control (DMSO); n = 3. On the procedure:
as §1

The subject of data set [5] is HepG2 cells. In words: Cytokinesis-block micronucleus (CBMN) assay, HepG2 cells cultured alone. The following applies: lasiocarpine 10 µM, riddelliine 100 µM, europine 320 µM; 28 h; vs solvent control (DMSO); n = 3. The class given is cell-based, human. The method, then:
as §1

Data set [6] concerns HeLa H2B-GFP cells co-cultured with HepG2 cells. Description: Analysis of mitotic figures, HeLa H2B-GFP cells of the co-culture. The class given is cell-based, human. The following applies: for mitotic index in co-culture / arrest in metaphase of mitosis (detectable as elevated mitotic index): 28 h, Las 10 µM, Rid 100 µM, Ep 160 µM; for mitotic index in co-culture: vs DMSO solvent control; for arrest in metaphase of mitosis (detectable as elevated mitotic index): vincristine 10 ng/ml (positive control). The method, then:
(§2) The characterization of mitotic cells in fixed cell preparations was performed as described in Baudoin and Cimini [(2018]). […] Thereafter, cells were harvested and the microscopic slides prepared as described for micronucleus analysis. The mitotic index (MI; % cells in mitosis) was assessed by counting and adding up the number of cells in the mitotic stages prophase, metaphase, anaphase and telophase in 1000 cells.
(§3) Disturbed mitoses were defined as mitotic figures deviating from the typical appearance of mitoses and were assessed in 300 mitotic cells per slide. We classified the mitotic disturbances into the following categories (Figs. 2, 3):
(§4) Metaphase: no metaphase plate arrangement, non-congression of individual chromosomes to the metaphase plate, multipolar (tripolar and more than tripolar) arrangement of chromosomes and elongated chromosomes/chromatids.
(§5) Anaphase: bridges, lagging chromosome(s), combination of bridges and lagging chromosome, and multipolar (tripolar and more than tripolar) arrangement of chromosomes.
(§6) Telophase: same analysis as for anaphase cells.
(§7) If a cell harboured more than one type of disturbance, it was added to each category (e.g. multipolar, lagging chromosome(s) and bridges).

The subject of data set [7] is HepG2 cells. Description: Analysis of mitotic figures, HepG2 cells cultured alone. The class given is cell-based, human. The following applies: 28 h; Las 10 µM, Rid 100 µM, Ep 160 µM; vs DMSO solvent control. The method, then:
as §2, §3, §4, §5, §6, §7

Data set [8] deals with HeLa H2B-GFP cells. Description: Analysis of mitotic figures, HeLa H2B-GFP cells cultured alone. The class given is cell-based, human. The following applies: 28 h; Las 10 µM, Rid 100 µM, Ep 160 µM; vs DMSO solvent control. On the procedure:
as §2, §3, §4, §5, §6, §7

Data set [9] concerns DNA. Further details: method as in Hadi et al. [2021]. The following applies: ref Hadi et al. [2021]; cited from earlier work.
A further data set concerns V79 hamster cells. The following applies: metabolically incompetent V79 cells with or without human CYP450-3A4; ref Ebmeyer et al. [(2019]); cited from earlier work.
In data set [10] the test system is DNA. Further details: method as in Hincks et al. [1991]. The following applies: ref Hincks et al. [1991]; cited from earlier work.

T1 sequence (Q92887 whole entry): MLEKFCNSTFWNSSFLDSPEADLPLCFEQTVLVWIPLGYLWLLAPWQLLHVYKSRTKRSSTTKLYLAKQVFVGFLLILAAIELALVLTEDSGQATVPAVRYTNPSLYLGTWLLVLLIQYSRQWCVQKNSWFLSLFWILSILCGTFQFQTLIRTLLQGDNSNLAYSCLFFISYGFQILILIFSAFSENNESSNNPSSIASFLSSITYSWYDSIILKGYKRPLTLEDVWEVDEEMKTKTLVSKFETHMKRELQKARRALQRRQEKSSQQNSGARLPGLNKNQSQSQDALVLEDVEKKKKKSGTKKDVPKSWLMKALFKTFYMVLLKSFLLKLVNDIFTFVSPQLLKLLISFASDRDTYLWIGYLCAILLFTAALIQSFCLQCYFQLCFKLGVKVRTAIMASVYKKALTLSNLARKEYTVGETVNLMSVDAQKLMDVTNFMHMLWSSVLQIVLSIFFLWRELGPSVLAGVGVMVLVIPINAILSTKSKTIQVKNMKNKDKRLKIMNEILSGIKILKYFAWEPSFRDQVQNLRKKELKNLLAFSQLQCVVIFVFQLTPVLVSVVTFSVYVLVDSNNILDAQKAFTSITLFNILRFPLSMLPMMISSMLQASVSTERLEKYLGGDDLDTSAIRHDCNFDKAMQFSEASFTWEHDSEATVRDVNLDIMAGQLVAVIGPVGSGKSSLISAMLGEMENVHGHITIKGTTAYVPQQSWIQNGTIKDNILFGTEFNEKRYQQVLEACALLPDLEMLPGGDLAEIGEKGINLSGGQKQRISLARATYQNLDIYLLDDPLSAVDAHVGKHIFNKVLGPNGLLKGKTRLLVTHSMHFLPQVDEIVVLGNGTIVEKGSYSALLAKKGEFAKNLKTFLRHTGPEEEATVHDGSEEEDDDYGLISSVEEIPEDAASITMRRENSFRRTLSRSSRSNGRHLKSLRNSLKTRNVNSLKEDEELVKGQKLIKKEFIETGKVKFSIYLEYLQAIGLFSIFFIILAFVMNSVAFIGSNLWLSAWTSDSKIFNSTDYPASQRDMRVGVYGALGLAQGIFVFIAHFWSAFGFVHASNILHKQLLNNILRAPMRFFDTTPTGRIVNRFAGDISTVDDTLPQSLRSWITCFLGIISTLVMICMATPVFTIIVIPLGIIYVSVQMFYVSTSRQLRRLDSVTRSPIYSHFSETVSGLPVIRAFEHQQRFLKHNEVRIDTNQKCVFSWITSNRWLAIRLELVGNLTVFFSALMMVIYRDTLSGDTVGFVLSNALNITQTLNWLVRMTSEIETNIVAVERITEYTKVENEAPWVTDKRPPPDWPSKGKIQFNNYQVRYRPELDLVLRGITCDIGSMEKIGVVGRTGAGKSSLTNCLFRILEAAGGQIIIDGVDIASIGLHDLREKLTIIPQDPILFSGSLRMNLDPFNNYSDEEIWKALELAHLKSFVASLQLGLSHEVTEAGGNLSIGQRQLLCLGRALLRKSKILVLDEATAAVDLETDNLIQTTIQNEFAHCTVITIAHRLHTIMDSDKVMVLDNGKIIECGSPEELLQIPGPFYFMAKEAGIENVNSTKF

Take `CC(C)[C@](O)(C(=O)OCC1=CCN2CC[C@@H](O)[C@@H]12)[C@@H](C)O` (stereo in doubt) [lycopsamine]: the “interference with cell cycle regulation and DNA damage repair” value (from here on “interference”) in data set [1] was “interfered with cell cycle regulation and DNA damage repair”.

Turning to `CCc1oc2ccccc2c1C(=O)c1cc(Br)c(O)c(Br)c1` [benzbromarone], in data set [2] (verapamil 50 µM, benzbromarone 10 µM or both, 24 h pretreatment, Ep 160 µM for 28 h), the “lasiocarpine-, riddelliine- and europine-induced micronucleus formation in HeLa H2B-GFP cells after efflux transporter inhibitor pretreatment” value is “significantly reduced”. At MRP2 efflux transporter, the “activity of MRP2 efflux transporter (calcein fluorescence retention)” value is listed as “significantly reduced”.

Consider `C=C/C1=C/[C@H](C)[C@](C)(OC(C)=O)C(=O)OC/C2=C/CN(C)CC[C@@H](OC1=O)C2=O` [clivorine], for which, in the data set with HSEC, the “cytotoxicity in HSEC” value is “concentration-dependent cytotoxicity”.

As to `C/C=C(/C)C(=O)O[C@@H]1CCN2CC=C(COC(=O)[C@@](O)([C@H](C)O)C(C)(C)O)[C@H]12` [echimidine], in [1], the “interference” value is “interfered with cell cycle regulation and DNA damage repair”.

With `COC(C)C(O)(C(=O)OCC1=CCN2CCC(O)C12)C(C)(C)O` (centres unmarked) [europine], the “micronucleus formation in HeLa H2B-GFP cells in the co-culture” value in [3] was “induced micronucleus formation significantly”. In addition, the “micronucleus formation in HeLa H2B-GFP cells cultured alone” value in the data set on HeLa H2B-GFP cells [4] is on record as “not if cultured alone”. Further, the “micronucleus induction in HepG2 cells cultured alone” value in the data set with HepG2 cells [5] was “induced micronuclei”. In data set [6], the “mitotic index in co-culture” value was “significantly decreased” and the “arrest in metaphase of mitosis (detectable as elevated mitotic index)” value (shortened to “arrest … (detectable as elevated mitotic index)”) was “not”. Also, the ana-/telophase bridges entry in data set [6] (in 300 mitotic cells, Ep 160 µM compared with Las 10 µM and Rid 100 µM, concentrations causing a similar number of micronuclei) is listed as “less ana-/telophase bridges than the two diesters”. Also, the “mitotic index in HepG2 cells” value in the data set on HepG2 cells [7] is given as “significantly decreased”. In addition, the “mitotic index in HeLa H2B-GFP cells cultured alone” value in the data set on HeLa H2B-GFP cells [8] is “no change”. Further, in the data set with DNA [9], the “induction of DNA cross-links” value is listed as “did not”.

`CC(=O)N1CCN(c2ccc(OCC3COC(Cn4ccnc4)(c4ccc(Cl)cc4Cl)O3)cc2)CC1` (centres unmarked) [ketoconazole]: the “lasiocarpine-, riddelliine- and europine-induced micronucleus formation after CYP450-3A4 inhibitor pretreatment” value in data set [2] (ketoconazole 1 µM 24 h pretreatment, Ep 320 µM for 28 h) is recorded as “significantly reduced”.

Turning to `C/C=C(/C)C(=O)O[C@H]1CCN2CC=C(COC(=O)[C@@](O)([C@H](C)OC)C(C)(C)O)[C@H]12` [lasiocarpine], the “interference” value in [1] is “interfered with cell cycle regulation and DNA damage repair”. Further, the “genotoxicity in V79 hamster cells” value in the data set on V79 hamster cells is recorded as “only genotoxic in metabolically incompetent V79 hamster cells if they had been genetically engineered to harbour human CYP450-3A4”.

Consider `C[C@H]1C(=O)O[C@@H]2CCN3CC=C(COC(=O)[C@](C)(O)[C@]1(C)O)[C@H]23` [monocrotaline], for which the “interference” value in [1] was “interfered with cell cycle regulation and DNA damage repair”. Moreover, the “cytotoxicity in HSEC” value in the data set on HSEC was “concentration-dependent cytotoxicity”.

For the molecule `C=C1C/C(=C/C)C(=O)O[C@@H]2CCN3CC=C(COC(=O)[C@@]1(O)CO)[C@H]23` [riddelliine], the “micronucleus formation in HeLa H2B-GFP cells in the co-culture” value in [3] is “induced micronucleus formation significantly”. For the same molecule, the “micronucleus formation in HeLa H2B-GFP cells cultured alone” value in the data set with HeLa H2B-GFP cells [4] is “not if cultured alone”. The “micronucleus induction in HepG2 cells cultured alone” value with HepG2 cells [5] is reported as “induced micronuclei”. In addition, in [6], the “mitotic index in co-culture” value is “did not cause significant alterations” and the “arrest … (detectable as elevated mitotic index)” value is “not”. The “mitotic index in HepG2 cells” value with HepG2 cells [7] is on record as “did not cause significant alterations”. Further, the “mitotic index in HeLa H2B-GFP cells cultured alone” value in the data set with HeLa H2B-GFP cells [8] is “did not cause significant alterations”. The DNA cross-linker potency result in the data set with DNA [10] is “more potent DNA cross-linker than heliosupine”. The “interference” value in data set [1] was “interfered with cell cycle regulation and DNA damage repair”.

As to `CC[C@]1(O)C[C@H]2CN(CCc3c([nH]c4ccccc34)[C@@](C(=O)OC)(c3cc4c(cc3OC)N(C=O)[C@H]3[C@@](O)(C(=O)OC)[C@H](OC(C)=O)[C@]5(CC)C=CCN6CC[C@]43[C@@H]65)C2)C1` [vincristine, reference compound], the “arrest … (detectable as elevated mitotic index)” value in [6] was “arrest in metaphase of mitosis”.
